Source: patent publication US8470765B2, “Polypeptides and antibacterial or antiseptic use of same” (AnGes MG, Inc., priority 2009, dated 2013)
No end group written: not given here.

Assays:
Type in all cases: cell-based
[1] = tested on: Escherichia coli ATCC 25922; assay: microbe, parasite or virus in culture; details: Table 5; unit not given
Procedure: (§1) Bacteria (Escherichia coli ATCC 25922, Pseudomonas aeruginosa ATCC 27853, Staphylococcus aureus ATCC29213, Klebsiella pneumoniae JCM 1662, Enterobacter cloacae JCM 1232, Enterobacter aerogenes JCM 1235 and Staphylococcus epidermidis JCM 2414) were inoculated to Mueller-Hinton broth: MHB or LB medium, and cultured at a temperature and period suited for each strain. From the thus obtained colonies, each strain was inoculated to a fresh liquid medium and cultured for 16 to 20 hours. Then an aliquot having a volume (10 to 50 appropriate to each strain was inoculated to a fresh liquid medium and cultured for 4 to 6 hours, followed by the measurement of the absorbance at 600 nm. After comparing the turbidity with McFarland #0.5, the resultant was diluted with a medium. Each strain was added to about 10^5 CFU/mL (final concentration). Each of the peptide solutions to be tested was diluted with MHB to obtain a solution of 128 μg/mL. […] As controls, tobramycin (TOB: aminoglucoside antibiotic), oxacillin (OX:β-lactam antibiotic), meropenem (MEPM: carbapenem antibiotic) and ciprofloxacin (new quinolone antibiotic) were used. […] To a 96-well microtiter plate, 0.1 mL of the inoculation solution and 0.1 mL of the peptide- or positive control-containing medium having the respective concentration were added, and cultured at 37° C. for 16 to 24 hours (or a time period suited for the growth of the respective strain). The well not containing the sample was used as a negative control. After the culturing, the growth was visually observed, and the minimum concentration at which the growth was inhibited was defined as the minimum growth inhibition concentration (MIC). The medium used in this test for bacteria was Mueller-Hinton broth. Independent experiments were carried out twice or more for each strain.

[2] = tested on: Pseudomonas aeruginosa ATCC 27853; assay: microbe, parasite or virus in culture; details: Table 5; unit not given
Procedure: as §1

[3] = tested on: Staphylococcus aureus ATCC29213; assay: microbe, parasite or virus in culture; details: Table 5; unit not given
Procedure: as §1

[4] = tested on: Staphylococcus epidermidis JCM 2414; assay: microbe, parasite or virus in culture; details: Table 5; unit not given
Procedure: as §1

[5] = tested on: Escherichia coli ATCC 25922; assay: ATP Assay (viability at 3 hours), Table 6; details: 3 h, 5 μg/mL
Procedure: (§2) Bacteria (Escherichia coli ATCC 25922, Pseudomonas aeruginosa ATCC 27853, Staphylococcus aureus ATCC29213, and Staphylococcus epidermidis JCM 2414) were inoculated to Mueller-Hinton broth: MHB or LB medium, and cultured at a temperature and period suited for each strain. From the thus obtained colonies, each strain was inoculated to a fresh liquid medium and cultured for 16 to 20 hours. Then an aliquot having a volume (10 to 50 μL) appropriate to each strain was inoculated to a fresh liquid medium and cultured for 4 to 6 hours, followed by the measurement of the absorbance at 600 nm. After comparing the turbidity with McFarland #0.5, the resultant was diluted with a medium. Each strain was added to about 10^5 CFU/mL (final concentration).
(§3) Each of the peptide solutions to be tested was diluted with the medium to obtain a solution of 10 μg/mL. As positive controls, tobramycin (TOB), oxacillin (OX) and meropenem (MEPM) were used. By dilution with sterilized purified water to 1.0 mg/mL, positive control-containing media having concentrations of […], respectively for TOB; 0.5, 0.12 and 0.06 μg/mL, respectively, for OX; and 1.0, 0.25, 0.12, 0.06, 0.03 and 0.008 μg/mL respectively, for MEPM, were prepared. To a 96-well microtiter plate, 0.1 mL of the inoculation solution and 0.1 mL of the peptide- or positive control-containing medium having the respective concentration were added, and cultured at 37° C. for 3 hours. The well not containing the sample was used as a negative control. After the culturing, ATP was measured using BacTiter-Glo Microbial Cell Viability Assay kit of PROMEGA, and compared with that in the negative control to obtain a relative value which was defined as a viability. The antibacterial activity was evaluated based on the viability at 3 hours later using ATP as an index.
(§4) The medium used in this test for bacteria was Mueller-Hinton broth. Independent experiments were carried out twice for each strain.

[6] = tested on: Pseudomonas aeruginosa ATCC 27853; assay: ATP Assay (viability at 3 hours), Table 6; details: 3 h, 5 μg/mL
Procedure: as §2, §3, §4

[7] = tested on: Staphylococcus aureus ATCC29213; assay: ATP Assay (viability at 3 hours), Table 6; details: 3 h, 5 μg/mL
Procedure: as §2, §3, §4

GERLKRKIQKWIRW-NH2 [SRP-26]
MIC Escherichia coli [1]: 16-32 | MIC Pseudomonas aeruginosa [2]: 16 | MIC Staphylococcus aureus [3]: 16 | MIC Staphylococcus epidermidis [4]: 16-32 | Escherichia coli ATP (viability, relative value to negative control) [5]: 9.0 | Pseudomonas aeruginosa ATP (viability, relative value to negative control) [6]: 6.2 | Staphylococcus aureus ATP (viability, relative value to negative control) [7]: 12.9

GRLKRIGERLKRKIQKWIRW-NH2 [SRP-24]
MIC Escherichia coli [1]: 16 | MIC Pseudomonas aeruginosa [2]: 8-16 | MIC Staphylococcus aureus [3]: 16 | MIC Staphylococcus epidermidis [4]: 8-32 | Escherichia coli ATP (viability, relative value to negative control) [5]: 8.2 | Pseudomonas aeruginosa ATP (viability, relative value to negative control) [6]: 1.3 | Staphylococcus aureus ATP (viability, relative value to negative control) [7]: 2.7

GRLKRLGKRLKRKIQKLARL-NH2 [SRP-32]
MIC Escherichia coli [1]: 16 | MIC Pseudomonas aeruginosa [2]: 8-16 | MIC Staphylococcus aureus [3]: 16 | MIC Staphylococcus epidermidis [4]: 4-8 | Escherichia coli ATP (viability, relative value to negative control) [5]: 7.0 | Pseudomonas aeruginosa ATP (viability, relative value to negative control) [6]: 1.6 | Staphylococcus aureus ATP (viability, relative value to negative control) [7]: 5.2

GRLKRLGERLKRKIQKLIRL-NH2 [SRP-27]
MIC Escherichia coli [1]: 16 | MIC Pseudomonas aeruginosa [2]: 8-16 | MIC Staphylococcus aureus [3]: 16 | MIC Staphylococcus epidermidis [4]: 8-16 | Escherichia coli ATP (viability, relative value to negative control) [5]: 5.6 | Pseudomonas aeruginosa ATP (viability, relative value to negative control) [6]: 2.1 | Staphylococcus aureus ATP (viability, relative value to negative control) [7]: 3.2

RLKRLGERLKRKIQKLIRL-NH2 [SRP-28]
MIC Escherichia coli [1]: 16 | MIC Pseudomonas aeruginosa [2]: 4-8 | MIC Staphylococcus aureus [3]: 16 | MIC Staphylococcus epidermidis [4]: 8-16 | Escherichia coli ATP (viability, relative value to negative control) [5]: 7.1 | Pseudomonas aeruginosa ATP (viability, relative value to negative control) [6]: 1.4 | Staphylococcus aureus ATP (viability, relative value to negative control) [7]: 5.2

RLKRLGERLKRKIQKL-NH2 [SRP-36]
MIC Escherichia coli [1]: 16-32 | MIC Pseudomonas aeruginosa [2]: 8-16 | MIC Staphylococcus aureus [3]: 16-32 | MIC Staphylococcus epidermidis [4]: 8 | Escherichia coli ATP (viability, relative value to negative control) [5]: 6.4 | Pseudomonas aeruginosa ATP (viability, relative value to negative control) [6]: 2.0 | Staphylococcus aureus ATP (viability, relative value to negative control) [7]: 3.6

RLKRLGERLKRKIQKLI-NH2 [SRP-35]
MIC Escherichia coli [1]: 8-16 | MIC Pseudomonas aeruginosa [2]: 8-16 | MIC Staphylococcus aureus [3]: 16-32 | MIC Staphylococcus epidermidis [4]: 8 | Escherichia coli ATP (viability, relative value to negative control) [5]: 3.6 | Pseudomonas aeruginosa ATP (viability, relative value to negative control) [6]: 5.2 | Staphylococcus aureus ATP (viability, relative value to negative control) [7]: 2.1

Ac-RLKRLGERLKRKIQKLIRL-NH2 [SRP-33]
MIC Escherichia coli [1]: 8-16 | MIC Pseudomonas aeruginosa [2]: 8-16 | MIC Staphylococcus aureus [3]: 16 | MIC Staphylococcus epidermidis [4]: 8-16 | Escherichia coli ATP (viability, relative value to negative control) [5]: 2.9 | Pseudomonas aeruginosa ATP (viability, relative value to negative control) [6]: 2.8 | Staphylococcus aureus ATP (viability, relative value to negative control) [7]: 1.6

LKRLGERLKRKIQKLIRL-NH2 [SRP-29]
MIC Escherichia coli [1]: 16-32 | MIC Pseudomonas aeruginosa [2]: 8 | MIC Staphylococcus aureus [3]: 16-32 | MIC Staphylococcus epidermidis [4]: 8 | Escherichia coli ATP (viability, relative value to negative control) [5]: 9.0 | Pseudomonas aeruginosa ATP (viability, relative value to negative control) [6]: 1.8 | Staphylococcus aureus ATP (viability, relative value to negative control) [7]: 1.9

RLGERLKRKIQKLIRL-NH2 [SRP-31]
MIC Escherichia coli [1]: 32-64 | MIC Pseudomonas aeruginosa [2]: 16 | MIC Staphylococcus aureus [3]: 32-64 | MIC Staphylococcus epidermidis [4]: 8-16 | Escherichia coli ATP (viability, relative value to negative control) [5]: 27.4 | Pseudomonas aeruginosa ATP (viability, relative value to negative control) [6]: 9.7 | Staphylococcus aureus ATP (viability, relative value to negative control) [7]: 19.7

MGERLKRKIQKWIRW-NH2 [SRP-25]
MIC Escherichia coli [1]: 16 | MIC Pseudomonas aeruginosa [2]: 16 | MIC Staphylococcus aureus [3]: 16 | MIC Staphylococcus epidermidis [4]: 8-32 | Escherichia coli ATP (viability, relative value to negative control) [5]: 23.5 | Pseudomonas aeruginosa ATP (viability, relative value to negative control) [6]: 15.4 | Staphylococcus aureus ATP (viability, relative value to negative control) [7]: 10.9

KRLGERLKRKIQKLIRL-NH2 [SRP-30]
MIC Escherichia coli [1]: 64 | MIC Pseudomonas aeruginosa [2]: 8-16 | MIC Staphylococcus aureus [3]: 16-64 | MIC Staphylococcus epidermidis [4]: 8-16 | Escherichia coli ATP (viability, relative value to negative control) [5]: 19.9 | Pseudomonas aeruginosa ATP (viability, relative value to negative control) [6]: 2.0 | Staphylococcus aureus ATP (viability, relative value to negative control) [7]: 6.3

GRLKRLGERLKRKIQKWIRW-NH2 [SRP-22]
MIC Escherichia coli [1]: 8-16 | MIC Pseudomonas aeruginosa [2]: 8-16 | MIC Staphylococcus aureus [3]: 8-16 | MIC Staphylococcus epidermidis [4]: 8 | Escherichia coli ATP (viability, relative value to negative control) [5]: 4.5 | Pseudomonas aeruginosa ATP (viability, relative value to negative control) [6]: 1.4 | Staphylococcus aureus ATP (viability, relative value to negative control) [7]: 5.0

RLKRLGERLKRKIQKLIR-NH2 [SRP-34]
MIC Escherichia coli [1]: 8-16 | MIC Pseudomonas aeruginosa [2]: 8-16 | MIC Staphylococcus aureus [3]: 16-32 | MIC Staphylococcus epidermidis [4]: 8-16 | Escherichia coli ATP (viability, relative value to negative control) [5]: 4.4 | Pseudomonas aeruginosa ATP (viability, relative value to negative control) [6]: 2.8 | Staphylococcus aureus ATP (viability, relative value to negative control) [7]: 2.6

GRLKRVGERLKRKIQKWIRW-NH2 [SRP-23]
MIC Escherichia coli [1]: 16 | MIC Pseudomonas aeruginosa [2]: 8-16 | MIC Staphylococcus aureus [3]: 8-16 | MIC Staphylococcus epidermidis [4]: 8-16 | Escherichia coli ATP (viability, relative value to negative control) [5]: 2.8 | Pseudomonas aeruginosa ATP (viability, relative value to negative control) [6]: 1.5 | Staphylococcus aureus ATP (viability, relative value to negative control) [7]: 3.0
